These results are taken from ChEMBL document CHEMBL5029191, “The Inhibitors of Protein Tyrosine Phosphatase Nonreceptor Type 2 (PTPN2) as Potential Enhancers of Cancer Immunotherapy and Type 1 (PTPN1) as Treatment of Metabolic Diseases” (ACS Med Chem Lett, 2022).

Assay [1] has as its target T1, Tyrosine-protein phosphatase non-receptor type 1 (Homo sapiens, UniProt P18031).
T1 sequence (P18031 whole entry): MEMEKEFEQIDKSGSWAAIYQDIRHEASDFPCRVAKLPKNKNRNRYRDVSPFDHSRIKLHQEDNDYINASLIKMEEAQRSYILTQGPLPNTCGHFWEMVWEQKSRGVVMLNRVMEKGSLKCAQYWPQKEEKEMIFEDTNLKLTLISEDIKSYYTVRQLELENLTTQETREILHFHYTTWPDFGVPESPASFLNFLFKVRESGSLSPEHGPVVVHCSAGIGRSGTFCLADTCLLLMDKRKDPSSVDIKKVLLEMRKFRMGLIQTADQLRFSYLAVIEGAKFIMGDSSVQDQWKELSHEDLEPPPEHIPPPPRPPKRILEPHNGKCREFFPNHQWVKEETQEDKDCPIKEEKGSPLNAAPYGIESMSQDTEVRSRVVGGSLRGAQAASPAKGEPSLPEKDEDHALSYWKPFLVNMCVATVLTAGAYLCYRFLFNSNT
Kind of assay: Inhibition of PTPN1 (unknown origin) by Mobility shift assay.

The subject of assay [2] is B16-F10. As to the kind of experiment: Growth inhibition of mouse B16-F10 cells at 33 uM relative to control. The assay is classed as functional. The following applies: read-out: GI.
Assay [3] has as its target T2, Tyrosine-protein phosphatase non-receptor type 2 (Homo sapiens, UniProt P17706).
T2 sequence (P17706 whole entry): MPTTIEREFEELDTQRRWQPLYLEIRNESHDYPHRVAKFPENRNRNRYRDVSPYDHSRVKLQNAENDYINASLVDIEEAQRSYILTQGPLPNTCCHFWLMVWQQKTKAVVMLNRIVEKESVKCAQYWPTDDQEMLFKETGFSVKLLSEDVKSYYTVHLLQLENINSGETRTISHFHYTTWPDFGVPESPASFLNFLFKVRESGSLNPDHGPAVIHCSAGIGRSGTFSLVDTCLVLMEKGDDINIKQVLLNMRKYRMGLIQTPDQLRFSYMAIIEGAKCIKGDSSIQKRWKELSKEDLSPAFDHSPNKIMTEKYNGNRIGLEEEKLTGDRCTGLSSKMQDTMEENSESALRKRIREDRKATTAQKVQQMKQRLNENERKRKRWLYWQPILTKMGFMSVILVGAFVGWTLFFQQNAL
Kind of assay: Inhibition of PTPN2 (unknown origin) by Mobility shift assay.

Assay [4] deals with B16-F10. As to the kind of experiment: Growth inhibition of […]-induced mouse B16-F10 cells at 33 uM relative to control. The format is functional. As to conditions: read-out: GI.

A word on the IC50: it is the concentration that gives 50% inhibition. For `O=C1CN(c2c(O)cc3ccc(NCCN4CCC4)cc3c2F)S(=O)(=O)N1`, the IC50 in assay [1] is over 100 nM; in assay [3] it was 1 nM. Besides, the inhibition of growth at 33 µM in the assay with B16-F10 [2] is under 25%; in the assay with B16-F10 [4], over 90%.

In the case of `CC(C)(C#N)CCOc1ccc2cc(O)c(N3CC(=O)NS3(=O)=O)c(F)c2c1`, the IC50 in assay [1] and in assay [3] was under 1 nM each time. Besides, the inhibition of growth at 33 µM is under 25% in the assay with B16-F10 [2] and 60% in the assay with B16-F10 [4].

For the compound `CC(C)CCS(=O)(=O)N1CC=C(c2ccc3cc(O)c(N4CC(=O)NS4(=O)=O)c(F)c3c2)C1`, the half-inhibitory concentration (IC50) in assay [1] and in assay [3] was under 1 nM in each case. Also, the inhibition of growth at 33 µM was under 25% in the assay with B16-F10 [2] and 60% with B16-F10 [4].

Turning to `O=C1CN(c2c(O)cc3ccc(C4CCN(S(=O)(=O)C5CC5)C4)cc3c2F)S(=O)(=O)N1` (centres undefined), the IC50 in assay [1] was 1 nM; in assay [3], under 1 nM. In addition, the inhibition of growth at 33 µM with B16-F10 [2] was under 25%; in the assay on B16-F10 [4], 60%.

As for `CC(C)(O)CCOc1ccc2c(F)c(N3CC(=O)NS3(=O)=O)c(O)cc2c1`, the results for the IC50 in assay [1] and in assay [3] were over 100 nM and over 10 nM, respectively.

As for `CCS(=O)(=O)N1CC=C(c2ccc3cc(O)c(N4CC(=O)NS4(=O)=O)c(F)c3c2)C1`, the IC50 in assay [1] and in assay [3] was under 1 nM in each case. The results for the inhibition of growth at 33 µM with B16-F10 [2] and in the assay on B16-F10 [4] were under 25% and over 90%, respectively.

Take `C[C@H](O)CCOc1ccc2cc(O)c(N3CC(=O)NS3(=O)=O)c(F)c2c1`: the IC50 was 1 nM in assay [1] and under 1 nM in assay [3]. Further, the inhibition of growth at 33 µM was under 25% in the assay with B16-F10 [2] and over 90% in the assay with B16-F10 [4].

Turning to `O=C1CN(c2c(O)cc3ccc(-c4cnn(CC5CC5)c4)cc3c2F)S(=O)(=O)N1`, the IC50 in assay [1] and in assay [3] was under 1 nM each time. In addition, the inhibition of growth at 33 µM was under 25% with B16-F10 [2] and 60% with B16-F10 [4].

Turning to `O=C1CN(c2c(O)cc3ccc(OCCC4CC4(F)F)cc3c2F)S(=O)(=O)N1` (centres undefined), the IC50 in assay [1] and in assay [3] was under 1 nM in each case. Further, the inhibition of growth at 33 µM in the assay with B16-F10 [2] was under 25%; with B16-F10 [4], 60%.

In the case of `O=C1CN(c2c(O)cc3ccc(NCCC4CC4)cc3c2F)S(=O)(=O)N1`, the IC50 in assay [1] and in assay [3] was 1 nM throughout. In addition, the inhibition of growth at 33 µM was under 25% in the assay with B16-F10 [2] and over 90% in the assay with B16-F10 [4].

Consider `O=C1CN(c2c(O)cc3ccc(OCC4CCCOC4)cc3c2F)S(=O)(=O)N1` (centres undefined), for which the IC50 in assay [1] is over 100 nM; in assay [3], under 1 nM. Besides, the inhibition of growth at 33 µM was under 25% in the assay on B16-F10 [2] and 60% in the assay on B16-F10 [4].

With `CC(C)(C#N)CCOc1cc2c(F)c(N3CC(=O)NS3(=O)=O)c(O)cc2cc1O`, the IC50 in assay [1] and in assay [3] was under 1 nM in each case.
